# According to patent publication US20240360135A1, “IMIDAZO[1,2-B]PYRIDAZINYL COMPOUNDS AND USES THEREOF” (Sumitomo Pharma Oncology, Inc., priority 2021, published 2024):
# Assays:
# A549 cells = experiment: Wound healing assay in A549 cells with TGF-β; assay type: cell-based; conditions: Homo sapiens; wound healing, A549, 5 ng/ml TGF-β, 24 h; read-out: IC50 (μM) 24 h
# Source text: Overview. Epithelial to mesenchymal transition (EMT) is used to describe epithelial cells losing their cell to cell adhesion and polarity while gaining migratory and invasive properties. The process of EMT is required for normal embryonic development and wound healing, but has also been implicated in fibrosis. In humans, TGF-β signaling is the main driver of EMT, and inhibiting this pathway may be beneficial in various diseases such as fibrosis. A wound healing assay was used to study cell migration and cell-cell interaction, and probe the EMT properties of lung epithelial cells (A549) in presence of Compound 2 or Compound 4.
# Procedure. A549 cells (ATCC, CCL-185) were seeded into the ImageLock plate (Essen Bioscience) at 2×10^4 cells/well in 100 μL of complete growth media. Cells were incubated overnight at 37° C., 5% CO2. The next day, cells were washed with 1×PBS and Compound 2, Compound 4, DMSO control (±TGF-β) or galunisertib (TGF-β inhibitor used as positive control) was added to the cells in a serum-free F12K media (0.2% DMSO final, 10 μM starting concentration, 3-fold dilution, 8-doses) in presence of 5 ng/ml TGF-β. Cells were incubated for 48 hours (until they reached confluency) at 37° C., 5% CO2. Wounds were simultaneously created using a WoundMaker™ (Essen Bioscience). Debris and non-attached cells were removed by gently washing once with F12K.
# Test compound or control compound and TGF-β were added to the cells in F12K+10% FBS as previously described. The ImageLock plate was put into IncuCyteS3 instrument installed inside a 5% CO2 incubator. The plate was allowed to equilibrate in the IncuCyteS3 instrument for 15 minutes prior to scheduling the first scan and data recording. The plate was incubated for 72 hours at 37° C., and wound closure was recorded in real time with the IncuCyte S3 imaging system. Percentage of relative wound density was quantitatively calculated by the IncuCyte software.
# mouse psoriasis models = conditions: cited from earlier work
# PIM3 = molecular target: T1, PIM3 (Homo sapiens, UniProt Q86V86); experiment: RBC HotSpot kinase inhibition assay, PIM3; assay type: biochemical
# T1 construct: purchased Millipore 14-738
# Description: (§1) Reagents. Base Reaction Buffer: 20 mM Hepes (pH 7.5), 10 mM MgCl2, 1 mM EGTA, 0.01% Brij35, 0.02 mg/ml BSA, 0.1 mM Na3VO4, 2 mM DTT, 1% DMSO. The following kinases were used in the assay at the indicated concentrations:
# (§2) The following substrates were used in combination with the indicated kinases in the assay at the indicated concentration:
# (§3) No cofactors were added to any of the reactions.
# (§4) • 1. Prepared substrate in freshly prepared Reaction Buffer. • 2. Delivered kinase into the substrate solution and gently mixed. • 3. Delivered test compound in 100% DMSO into the kinase reaction mixture by Acoustic technology (Echo550; nanoliter range), incubated for 20 minutes at room temperature. • 4. Delivered ^33P-ATP into the reaction mixture to initiate the reaction. • 5. Incubated for 2 hours at room temperature. • 6. Detected kinase activity by P81 filter-binding method.
# (§5) The results of the RBC HotSpot™ kinase assay are set forth in Table 1, wherein “A” indicates an IC50<10 nM, “B” indicates an IC50 wherein 10 nM≤IC50≤100 nM, and “C” indicates an IC50>100 nM.
# PIM2 = molecular target: T2, PIM2 (Homo sapiens, UniProt Q9P1W9); experiment: RBC HotSpot kinase inhibition assay, PIM2; assay type: biochemical
# T2 construct: purchased Invitrogen PR6347B
# Description: as §1, §2, §3, §4, §5
# PIM1 = molecular target: T3, PIM1 (Homo sapiens, UniProt P11309); experiment: RBC HotSpot kinase inhibition assay, PIM1; assay type: biochemical
# T3 construct: purchased Invitrogen PV3503
# Description: as §1, §2, §3, §4, §5
# T2 sequence (Q9P1W9 whole entry): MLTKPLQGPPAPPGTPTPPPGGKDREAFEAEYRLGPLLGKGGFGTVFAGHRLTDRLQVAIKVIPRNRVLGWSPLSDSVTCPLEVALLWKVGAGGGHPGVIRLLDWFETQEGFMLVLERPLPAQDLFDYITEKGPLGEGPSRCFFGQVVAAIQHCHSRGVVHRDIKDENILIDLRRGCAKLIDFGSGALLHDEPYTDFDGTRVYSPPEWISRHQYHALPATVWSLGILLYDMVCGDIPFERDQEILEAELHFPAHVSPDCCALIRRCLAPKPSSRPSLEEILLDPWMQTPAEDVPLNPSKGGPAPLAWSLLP
# T3 sequence (P11309 whole entry): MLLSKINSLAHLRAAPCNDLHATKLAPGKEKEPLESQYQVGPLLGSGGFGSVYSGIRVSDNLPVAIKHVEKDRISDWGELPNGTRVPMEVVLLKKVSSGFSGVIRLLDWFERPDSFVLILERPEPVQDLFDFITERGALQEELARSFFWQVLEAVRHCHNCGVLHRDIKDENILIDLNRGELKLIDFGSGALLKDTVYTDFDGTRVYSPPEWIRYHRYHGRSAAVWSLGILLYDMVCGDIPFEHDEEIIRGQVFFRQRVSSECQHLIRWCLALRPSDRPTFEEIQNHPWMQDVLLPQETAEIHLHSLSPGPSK
structure (smiles),measurement,setting,value
"Cc1cccc(-c2nn3c(c2-c2ccnc4ccc(C(N)=O)cc24)CCC3)n1 [Galunisertib, galunisertib, reference compound]",IC50,A549 cells,> 10 µM
CN1CCC(CNc2ccc3ncc(-c4cccc(OC(F)(F)F)c4)n3n2)CC1 [SGI-1776],epidermal thickening,mouse psoriasis models,partial reduction
same,vascularization,mouse psoriasis models,partial reduction
"CCc1cc(-c2cnc3ccc(NC45CCC(C(C)(C)O)(CC4)CC5)nn23)n[nH]1 [Compound 6, 2-(4-((3-(5-ethyl-1H-pyrazol-3-yl)imidazo[1,2-b]pyridazin-6-yl)amino)bicyclo[2.2.2]octan-1-yl)propan-2-ol]",IC50,PIM3,< 10 nM
same,IC50,PIM2,> 100 nM
same,IC50,PIM1,< 10 nM
"OC12CCC(Nc3ccc4ncc(-c5cc(C6CC6)[nH]n5)n4n3)(CC1)C2 [Compound 5, 4-((3-(5-cyclopropyl-1H-pyrazol-3-yl)imidazo[1,2-b]pyridazin-6-yl)amino)bicyclo[2.2.1]heptan-1-ol]",IC50,PIM3,10 to 100 nM
same,IC50,PIM2,> 100 nM
same,IC50,PIM1,10 to 100 nM
"CCc1cc(-c2cnc3ccc(NC45CCC(O)(CC4)C5)nn23)n[nH]1 [Compound 7, 4-((3-(5-ethyl-1H-pyrazol-3-yl)imidazo[1,2-b]pyridazin-6-yl)amino)bicyclo[2.2.1]heptan-1-ol]",IC50,PIM3,10 to 100 nM
same,IC50,PIM2,> 100 nM
same,IC50,PIM1,10 to 100 nM
"Cc1cc(-c2cnc3ccc(NC45CCC(O)(CC4)C5)nn23)n[nH]1 [Compound 1, 4-((3-(5-methyl-1H-pyrazol-3-yl)imidazo[1,2-b]pyridazin-6-yl)amino)bicyclo[2.2.1]heptan-1-ol]",IC50,PIM3,> 100 nM
same,IC50,PIM2,> 100 nM
same,IC50,PIM1,> 100 nM
"CCc1cc(-c2cnc3ccc(NC45CCC(O)(CC4)C5)nn23)c[nH]1 [Compound 3, 4-((3-(5-ethyl-1H-pyrrol-3-yl)imidazo[1,2-b]pyridazin-6-yl)amino)bicyclo[2.2.1]heptan-1-ol]",IC50,PIM3,10 to 100 nM
same,IC50,PIM2,> 100 nM
same,IC50,PIM1,10 to 100 nM
